Source: patent US8420132B2, “Synergistic anti-inflammatory and antioxidant dietary supplement compositions” (Laila Impex, priority 2007, dated 2013)

How the values were obtained:
[1] = system: Freund's Complete Adjuvant (FCA) challenged rats; assay: Freund's Complete Adjuvant induced inflammation (paw volume) in rats; format: in vivo; details: 50 mg/kg daily in 1% CMC for 28 days, FCA on day 14, paw volumes at 28th day
Experimental: Test animals (rats, 200-300 g) of either sex were randomly distributed into different groups, with 5 animals in each group. Rats were supplemented daily with either demethylated curcuminoids (50 mg/kg) or enriched AKBA extract (50 mg/kg) or glucosamine (50 mg/kg), or reseveratrol (50 mg/kg), garlic extract (50 mg/kg) or ginger extract (50 mg/kg), or composition 7 (50 mg/kg) in 1% CMC for 28 days. The control group received same volume of vehicle (1% CMC); a standard drug, Prednisolone (10 mg/kg, orally) was used in the control treatment group. On the day 14, 100 μl of Freund's Complete Adjuvant (FCA) was injected subcutaneously in the sub planter region of the left hind paw. Blood samples were collected from each animal on the previous day of FCA challenge and at the day of termination of experiment i.e. 14 days after challenge. At the 28th day paw volumes were measured and after sacrificing the animals, liver tissues were excised and stored at −80° C. until further use.

5-LOX = target: T1, 5-LOX (Homo sapiens, UniProt P09917); details: of all the six boswellic acids; cited from earlier work
T1 sequence (P09917 1-674): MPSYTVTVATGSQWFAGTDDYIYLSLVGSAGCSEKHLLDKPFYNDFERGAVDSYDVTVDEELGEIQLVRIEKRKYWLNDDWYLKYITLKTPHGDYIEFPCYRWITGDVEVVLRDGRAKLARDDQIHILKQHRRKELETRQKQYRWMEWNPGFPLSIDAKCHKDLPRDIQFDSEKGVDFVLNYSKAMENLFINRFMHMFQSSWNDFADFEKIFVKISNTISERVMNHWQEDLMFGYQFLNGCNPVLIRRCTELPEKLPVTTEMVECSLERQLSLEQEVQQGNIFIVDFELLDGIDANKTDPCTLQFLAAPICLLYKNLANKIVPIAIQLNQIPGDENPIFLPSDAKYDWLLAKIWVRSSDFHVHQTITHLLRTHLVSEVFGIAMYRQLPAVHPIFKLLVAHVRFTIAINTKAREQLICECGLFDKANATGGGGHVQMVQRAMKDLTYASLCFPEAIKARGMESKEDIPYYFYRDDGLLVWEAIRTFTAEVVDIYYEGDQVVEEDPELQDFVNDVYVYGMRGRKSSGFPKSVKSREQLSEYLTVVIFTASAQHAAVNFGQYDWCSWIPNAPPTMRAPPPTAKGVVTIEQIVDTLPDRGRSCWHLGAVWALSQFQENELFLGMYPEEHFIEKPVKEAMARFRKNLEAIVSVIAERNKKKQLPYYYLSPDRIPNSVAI

Row | SMILES | percent of inhibitions [1] [%] | inhibitory activity against 5-LOX (in words) (5-LOX)
1 | Oc1ccc(/C=C/c2cc(O)cc(O)c2)cc1 [Reseveratrol, reseveratrol] | 20.5 | 
2 | CC(=O)O[C@H]1CC[C@@]2(C)C(CC[C@]3(C)C2C(=O)C=C2C4[C@@H](C)[C@@H](C)CC[C@]4(C)CC[C@@]23C)[C@]1(C)C(=O)O (stereo partly drawn) [AKBA, 3-O-acetyl-11-keto-β-boswellic acid] |  | most pronounced inhibitory activity
3 | N[C@H]1C(O)O[C@H](CO)[C@@H](O)[C@@H]1O (stereo partly drawn) [Glucosamine, glucosamine] | 5.5 | 
